Measurements published in ChEMBL document CHEMBL2375302, “Synthesis, antimicrobial, antiquorum-sensing, antitumor and cytotoxic activities of new series of fused [1,3,4]thiadiazoles” (Eur J Med Chem, 2013).
≈ marks a conversion by molar mass, not a printed value.

How the values were obtained:
KM12 = test: Growth inhibition of human KM12 cells at 10 uM after 48 hrs by coulter counter analysis relative to control; type: functional; conditions: KM12, 48 h, read-out: GI
NCI-H23 = test: Growth inhibition of human NCI-H23 cells at 10 uM after 48 hrs by coulter counter analysis relative to control; type: functional; conditions: NCI-H23, 48 h, read-out: GI
SW-620 = test: Growth inhibition of human SW620 cells at 10 uM after 48 hrs by coulter counter analysis relative to control; type: functional; conditions: SW-620, 48 h, read-out: GI
SNB-19 = test: Growth inhibition of human SNB19 cells at 10 uM after 48 hrs by coulter counter analysis relative to control; type: functional; conditions: SNB-19, 48 h, read-out: GI
MDA-MB-231 = test: Growth inhibition of human MDA-MB-231 cells at 10 uM after 48 hrs by coulter counter analysis relative to control; type: functional; conditions: MDA-MB-231, 48 h, read-out: GI
SF-268 = test: Growth inhibition of human SF268 cells at 10 uM after 48 hrs by coulter counter analysis relative to control; type: functional; conditions: SF-268, 48 h, read-out: GI
Candida albicans = test: Antifungal activity against Candida albicans at 5 mg/mL after 48 hrs; type: functional; conditions: read-out: DIZ
[1] = Growth inhibition of human EKVX cells at 10 uM after 48 hrs by coulter counter analysis relative to control; type: functional; conditions: read-out: GI
MCF7 = test: Growth inhibition of human MCF7 cells at 10 uM after 48 hrs by coulter counter analysis relative to control; type: functional; conditions: MCF7, 48 h, read-out: GI
A498 = test: Growth inhibition of human A498 cells at 10 uM after 48 hrs by coulter counter analysis relative to control; type: functional; conditions: A498, 48 h, read-out: GI
LOX IMVI = test: Growth inhibition of human LOXIMVI cells at 10 uM after 48 hrs by coulter counter analysis relative to control; type: functional; conditions: read-out: GI
[2] = Toxicity against brine shrimp larvae assessed as mortality at 1000 ug/mL after 24 hrs by binocular microscopic analysis relative to control; type: organism-based; conditions: artemia salina, in vivo
HCT-15 = test: Growth inhibition of human HCT15 cells at 10 uM after 48 hrs by coulter counter analysis relative to control; type: functional; conditions: HCT-15, 48 h, read-out: GI
SK-OV-3 = test: Growth inhibition of human SKOV3 cells at 10 uM after 48 hrs by coulter counter analysis relative to control; type: functional; conditions: SK-OV-3, 48 h, read-out: GI
SNB-75 = test: Growth inhibition of human SNB75 cells at 10 uM after 48 hrs by coulter counter analysis relative to control; type: functional; conditions: SNB-75, 48 h, read-out: GI
SN12C = test: Growth inhibition of human SN12C cells at 10 uM after 48 hrs by coulter counter analysis relative to control; type: functional; conditions: read-out: GI
ACHN = test: Growth inhibition of human ACHN cells at 10 uM after 48 hrs by coulter counter analysis relative to control; type: functional; conditions: read-out: GI
NCI-H522 = test: Growth inhibition of human NCI-H522 cells at 10 uM after 48 hrs by coulter counter analysis relative to control; type: functional; conditions: NCI-H522, 48 h, read-out: GI
[3] = Growth inhibition of human NCI-ADR-RES cells at 10 uM after 48 hrs by coulter counter analysis relative to control; type: functional; conditions: read-out: GI
Hs-578T = test: Growth inhibition of human Hs578T cells at 10 uM after 48 hrs by coulter counter analysis relative to control; type: functional; conditions: read-out: GI
[4] = Toxicity against brine shrimp larvae assessed as mortality at 10 ug/mL after 24 hrs by binocular microscopic analysis relative to control; type: organism-based; conditions: artemia salina, in vivo
NCI-H460 = test: Growth inhibition of human NCI-H460 cells at 10 uM after 48 hrs by coulter counter analysis relative to control; type: functional; conditions: NCI-H460, 48 h, read-out: GI
[5] = tested on: Chromobacterium violaceum; test: Antiquorum-sensing activity against Chromobacterium violaceum ATCC 12472 after 48 hrs; type: functional
OVCAR-3 = test: Growth inhibition of human OVCAR3 cells at 10 uM after 48 hrs by coulter counter analysis relative to control; type: functional; conditions: OVCAR-3, 48 h, read-out: GI
[6] = (§1) Toxicity against brine shrimp larvae assessed as mortality after 24 hrs by binocular microscopic analysis; type: organism-based; conditions: artemia salina, in vivo
Artemia salina = test: as §1; type: organism-based; conditions: in vivo, 24 h
Staphylococcus aureus = test: Antibacterial activity against Staphylococcus aureus at 5 mg/mL after 24 hrs; type: functional; conditions: read-out: DIZ
UO-31 = test: Growth inhibition of human UO31 cells at 10 uM after 48 hrs by coulter counter analysis relative to control; type: functional; conditions: UO-31, 48 h, read-out: GI
COLO 205 = test: Growth inhibition of human COLO205 cells at 10 uM after 48 hrs by coulter counter analysis relative to control; type: functional; conditions: COLO 205, 48 h, read-out: GI
OVCAR-5 = test: Growth inhibition of human OVCAR5 cells at 10 uM after 48 hrs by coulter counter analysis relative to control; type: functional; conditions: OVCAR-5, 48 h, read-out: GI
HOP-92 = test: Growth inhibition of human HOP92 cells at 10 uM after 48 hrs by coulter counter analysis relative to control; type: functional; conditions: HOP-92, 48 h, read-out: GI
HL-60(TB) = test: Growth inhibition of human HL-60(TB) cells at 10 uM after 48 hrs by coulter counter analysis relative to control; type: functional; conditions: HL-60, 48 h, read-out: GI
TK-10 = test: Growth inhibition of human TK10 cells at 10 uM after 48 hrs by coulter counter analysis relative to control; type: functional; conditions: TK-10, 48 h, read-out: GI
DU-145 = test: Growth inhibition of human DU145 cells at 10 uM after 48 hrs by coulter counter analysis relative to control; type: functional; conditions: DU-145, 48 h, read-out: GI
Aspergillus flavus = test: Antifungal activity against Aspergillus flavus 3372 at 5 mg/mL after 48 hrs; type: functional; conditions: Aspergillus flavus, 3372, 48 h; read-out: DIZ
RXF 393 = test: Growth inhibition of human RXF393 cells at 10 uM after 48 hrs by coulter counter analysis relative to control; type: functional; conditions: RXF 393, 48 h, read-out: GI
Malme-3M = test: Growth inhibition of human MALME-3M cells at 10 uM after 48 hrs by coulter counter analysis relative to control; type: functional; conditions: read-out: GI
MDA-MB-435 = test: Growth inhibition of human MDA-MB-435 cells at 10 uM after 48 hrs by coulter counter analysis relative to control; type: functional; conditions: MDA-MB-435, 48 h, read-out: GI
Aspergillus fumigatus = test: Antifungal activity against Aspergillus fumigatus Af293 at 5 mg/mL after 48 hrs; type: functional; conditions: Af293, 48 h, read-out: DIZ
[7] = Toxicity against brine shrimp larvae assessed as mortality at 100 ug/mL after 24 hrs by binocular microscopic analysis relative to control; type: organism-based; conditions: artemia salina, in vivo
UACC-257 = test: Growth inhibition of human UACC257 cells at 10 uM after 48 hrs by coulter counter analysis relative to control; type: functional; conditions: UACC-257, 48 h, read-out: GI

## CCOC(=O)C1C(=O)N=C2SC(S(N)(=O)=O)=NN2C1c1ccc(N(C)C)cc1 (stereo unspecified)
KM12
  inhibition of growth at 10 µM: < 10%
NCI-H23
  inhibition of growth at 10 µM: < 10%
SW-620
  inhibition of growth at 10 µM: < 10%
SNB-19
  inhibition of growth at 10 µM: < 10%
MDA-MB-231
  inhibition of growth at 10 µM: 34.6%
SF-268
  inhibition of growth at 10 µM: < 10%
Candida albicans
  zone of inhibition at 5000 µg/mL: 10 mm
[1]
  inhibition of growth at 10 µM: 12.2%
MCF7
  inhibition of growth at 10 µM: 10.2%
A498
  inhibition of growth at 10 µM: 16.5%
LOX IMVI
  inhibition of growth at 10 µM: 11.7%
[2]
  mortality at 24 h, 1000 ug/mL: 100%
HCT-15
  inhibition of growth at 10 µM: < 10%
SK-OV-3
  inhibition of growth at 10 µM: < 10%
SNB-75
  inhibition of growth at 10 µM: 10.1%
SN12C
  inhibition of growth at 10 µM: < 10%
ACHN
  inhibition of growth at 10 µM: < 10%
NCI-H522
  inhibition of growth at 10 µM: 19.3%
[3]
  inhibition of growth at 10 µM: < 10%
Hs-578T
  inhibition of growth at 10 µM: 18.5%
[4]
  mortality at 24 h, 10 ug/mL: 66.6%
NCI-H460
  inhibition of growth at 10 µM: < 10%
[5]
  diameter of the inhibition zone (DIZ): <2 mm
OVCAR-3
  inhibition of growth at 10 µM: < 10%
[6]
  LC50 at 24 h: 405 µg/mL (≈ 951 µM)
Artemia salina
  LC90: 728.74 µg/mL (≈ 1710 µM)
Staphylococcus aureus
  zone of inhibition at 5000 µg/mL: 5 mm
UO-31
  inhibition of growth at 10 µM: 14.7%
COLO 205
  inhibition of growth at 10 µM: < 10%
OVCAR-5
  inhibition of growth at 10 µM: < 10%
HOP-92
  inhibition of growth at 10 µM: 51.2%
HL-60(TB)
  inhibition of growth at 10 µM: 21%
TK-10
  inhibition of growth at 10 µM: < 10%
DU-145
  inhibition of growth at 10 µM: < 10%
Aspergillus flavus
  zone of inhibition at 5000 µg/mL: < 2 mm
RXF 393
  inhibition of growth at 10 µM: < 10%
Malme-3M
  inhibition of growth at 10 µM: 14.9%
MDA-MB-435
  inhibition of growth at 10 µM: 21.3%
Aspergillus fumigatus
  zone of inhibition at 5000 µg/mL: 4 mm
[7]
  mortality at 24 h, 100 ug/mL: 83.3%
UACC-257
  inhibition of growth at 10 µM: < 10%
